# Measured values reported in BindingDB's records for doi:10.1128/aac.38.12.2827 (Merck Research Laboratories, 1995).
# pIC50: −log10 of the molar value.
# Molecular target: Polymerase acidic protein (Influenza A virus (strain A/Puerto Rico/8/1934 H1N1), UniProt P03433)
# Experiment: Inhibition of cap 1 ALMV primed Influenza transcriptase
row,SMILES,pIC50
1,NC(=O)C(=O)CC(=O)C1CCCCC1,< 3.30
2,O=C(O)C(=O)CS(=O)(=O)c1ccccc1,< 3.30
3,O=C(O)C(=O)Cc1cc2ccccc2o1,< 3.30
4,Cn1c(CC(=O)C(=O)O)nc2ccccc21,< 3.30
5,O=C(O)C(=O)Cc1nc2ccccc2s1,< 3.30
